# From article PMC3518590 (Journal of inorganic biochemistry, 2012)
# “Also recorded” adds a separate entry of the source. Read-outs that look alike come from different tables or passages of the source.
# What was measured:
# [1] = target: ALDH peptide A286-R307 (AIDWIAAGIFYLNSGQNCTANSR) (Saccharomyces cerevisiae, UniProt P47771); experiment: LC-MS reactivity with ALDH peptide A286-R307
# [2] = tested on: Yeast ALDH (E.C. 1.2.1.5); conditions: read-out: ALDH inhibition, reported IC50; ref [24], [25]; cited from earlier work
# [3] = tested on: Yeast ALDH (E.C. 1.2.1.5); experiment: In vitro inhibition of yeast ALDH; assay type: biochemical; conditions: for time to complete inhibition of ALDH: inhibitor at ten-fold the IC50; for IC50: read-out: ALDH inhibition IC50, 37 °C preincubation
# [4] = tested on: Yeast ALDH (E.C. 1.2.1.5); experiment: In vitro reactivation of inhibited yeast ALDH by DTT; assay type: biochemical; conditions: inhibitor at ten-times IC50, DTT 10 mM
# [5] = buffer; cited from earlier work
# [6] = Water solubility in buffer; assay type: physicochemical
# [7] = UV-Vis spectroscopy assay for decomposition in buffer; conditions: no PLE
# [8] = buffer, pH 7.4
# [9] = target: oxymyoglobin (MbO2) (Equus caballus, UniProt P68082); experiment: UV-vis assay of metMb formation from MbO2; assay type: biochemical
# Sequence of oxymyoglobin (MbO2) (P68082 whole entry): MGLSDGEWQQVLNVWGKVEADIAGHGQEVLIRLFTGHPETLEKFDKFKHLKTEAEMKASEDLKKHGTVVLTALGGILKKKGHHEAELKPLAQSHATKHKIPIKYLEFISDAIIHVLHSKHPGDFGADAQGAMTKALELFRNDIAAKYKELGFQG
# [10] = 10 eq. reagent, peptide 10 μM, no PLE, room temperature
# Sequence of UniProt P47771 (P47771 286-307): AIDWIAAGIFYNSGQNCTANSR
Compound,"Product(s) of reaction with ALDH peptide [1, 10]",IC50 [2],time to complete inhibition of ALDH [3],IC50 ([3]; absence of PLE),ALDH enzyme activity restored by DTT ([4]; no PLE),decomposition t1/2 (comparison value) [5],further results
"O=Nc1ccccc1 [NB, Nitrosobenzene]",N-phenyl sulfinamide,2500 nM,≤ 10 min,200 nM,15%,–,–
CC(C)(C)C(=O)OC1(N=O)CCCCC1 [compound 2],–,–,–,–,–,37.8 h,–
CC(=O)OC1(N=O)CCCCC1 [compound 1],–,–,–,–,–,14.8 h,–
"CC(=O)OC1(N=O)CCOCC1 [compound 4, 4-Nitrosotetrahydro-2H-pyran-4-yl Acetate]",–,–,–,–,–,–,"solubility [6]: 1700 µM; decomposition rate constant k ([7]; buffered conditions, PBS 100 mM pH 7.4, 37 °C): 3e-05 s⁻¹"
"[Na+].[Na+].[O-][N+]([O-])=NO [AS, Angeli’s salt (NaN2O3, AS)]",sulfinamide-minor; also recorded: dhA -major,1800 nM,≤ 10 min,2100 nM,46%,–,Product(s) of reaction with ALDH peptide ([1]; 1000 eq. reagent): sulfinamide
4-Nitrosotetrahydro-2H-pyran-4-yl Pivalate [compound 5],RSSR,–,–,3300 nM,63%,–,"Product(s) of reaction with ALDH peptide ([1]; 10 eq. reagent + PLE (9 U/μmol), room temperature): RSSR and sulfinamide; decomposition t1/2 [8]: 32 h; IC50 ([3]; presence of PLE (9 U/μmol)): 3500 nM; ALDH enzyme activity restored by DTT ([4]; in the presence of PLE): 43%; decomposition rate constant k ([7]; 3 % mixture of DMF:PBS (100 mM, pH 7.4), 37 °C): 6e-06 s⁻¹; rate constant of MbO2 conversion to metMb ([9]; MbO2 42 μM, compound 84 μM, PLE 9 U/μmol, PBS pH 7.4, 37 °C): 0.0003 s⁻¹; reaction with MbO2 (absorption spectra) ([9]; absence of PLE): no change in the absorption spectra"
